Test system: synthesis and secretion of a type IV collagen protein in vascular endothelial cells derived from iPS cells
Experiment: Amount of type IV collagen protein released into the medium by iPS-derived vascular endothelial cells (Western blotting)
Format: cell-based, human
Details: 10 nmol/L digoxin, serum-free medium, 3 days culture; FIG. 3
Protocol: As the cells, iPS cells derived from healthy adults and patients with scleroderma established at Kumamoto University were used (Zhongzhi Wang, et al., JDS 2016 November; 84(2): 186-196.). Scleroderma is known to cause Raynaud's syndrome, which is one of peripheral vascular disorders, as a symptom of scleroderma, and therefore was employed as a vascular disorder model cell.
Differentiation induction into vascular endothelial cells was performed by culturing iPS cells derived from healthy adults and patients with scleroderma under the conditions described in Table 1.
As the obtained cells, only cells positive for VE-cadherin (CD144) and PECAM-1 (CD31), which are vascular endothelial cell markers, were sorted using flow cytometry. From the morphology of the sorted cells and the expression of the marker genes, it was confirmed that the sorted cells were vascular endothelial cells. […]
In the above (1), using the cell supernatant cultured in the serum-free medium, the amount of a type IV collagen protein released into the medium was quantified by the following method.
First, proteins released into the medium were concentrated. […] After removal of ethanol, the precipitate was dried and dissolved in an RIPA buffer, and each sample was adjusted to have a protein concentration of 1 mg/ml using a protein quantification reagent (Bradford Protein Assay, manufactured by Bio-Rad Laboratories, Inc.). […]

## C[C@H]1O[C@@H](O[C@H]2[C@@H](O)C[C@H](O[C@H]3[C@@H](O)C[C@H](O[C@H]4CC[C@@]5(C)[C@H](CC[C@@H]6[C@@H]5C[C@@H](O)[C@]5(C)[C@@H](C7=CC(=O)OC7)CC[C@]65O)C4)O[C@@H]3C)O[C@@H]2C)C[C@H](O)[C@@H]1O [digoxin]
  amount of a type IV collagen protein in the medium: hardly reduced
